Entries after “also recorded” stand apart in the source; their conditions may differ.
Assays:
[1] = test system: cardiac hypertrophy; conditions: cited from earlier work
Source text: There are numerous reports on biased agonists. Biased agonism occurs when two ligands share one receptor, but transmit different signals. […] However, there are a few natural β-arrestin-biased agonists and very few 7TMRs that activate intracellular signaling only through β-arr ...

[2] = test system: type 1 angiotensin II receptor; conditions: cited from earlier work
Source text: There are many seven-transmembrane receptors (7TMRs), such as adrenergic receptors and angiotensin II receptors, in the heart, and they play various critical roles in cardiac function and morphology[1],[2]. […] The roles of ACKRs are largely unknown, and only ACKR3, also known as CXC chemokine receptor 7 (CXCR7), has be ... || There are numerous reports on biased agonists. Biased agonism occurs when two ligands share one receptor, but transmit different signals. […] However, there are a few natural β-arrestin-biased agonists and very few 7TMRs that activate intracellular signaling only through β-arr ...

[3] = test system: CXCR4; conditions: via CXCR4; cited from earlier work
Source text: (§1) Recently, the importance of chemokines and their receptors in cardiovascular diseases has been pointed out.

[4] = test system: ERK (via rat CXCR7 expression plasmid); experiment: ERK phosphorylation (pERK/tERK immunoblot) in CXCR7-transfected HEK293 cells; assay type: cell-based, HEK293 cells (human embryonic kidney); conditions: CXCL12 100 nM
Description: HEK293 cells (ATCC CRL-11268) were used for the β-arrestin recruitment assay, as previously described. In brief, HEK293 cells were transfected with human β-arrestin-2-ω and human CXCR7-α. […] Luminescence was measured in an ARVO X3 plate reader (PerkinElmer, Waltham, MA, USA). In addition, HEK293 cells were transfected with a rat CXCR7 expression plasmid using Lipofectamine 3000 (Thermo Fisher Scientific). The CXCR7 expression plasmid was synthesized by amplifying a rat Cxcr7 mRNA sequence (RefSeq: NM_053352.1) with a FLAG tag (forward primer: 5′-[…]-3′, reverse primer: 5′-[…]-3′) from cDNA prepared from total RNA isolated from neonatal rat heart and inserting it in pShuttle-CMV (#16403, Addgene, Watertown, MA, USA). The cells were cultured for 36 h.
Western blotting was performed as previously described. Tissues and cells were homogenized in ice-cold RIPA buffer containing protease inhibitor (cOmplete Protease Inhibitor Cocktail, Merck) and phosphatase inhibitor (PhosSTOP, Sigma). Supernatants were collected after centrifugation and mixed with an equal amount of loading buffer (125 mM Tris–HCl pH 6.8, 30% glycerol, 10% SDS, and 0.6 M DTT). […] Signals were detected with the Pierce ECL Prime system (GE Healthcare) in a LAS4000 instrument (GE Healthcare). Band densities were analyzed using the ImageJ software (National Institutes of Health, Bethesda, MD, USA).

[5] = test system: heart failure patients; conditions: cited from earlier work
Source text: (§2) There are many seven-transmembrane receptors (7TMRs), such as adrenergic receptors and angiotensin II receptors, in the heart, and they play various critical roles in cardiac function and morphology[1],[2]. […] The roles of ACKRs are largely unknown, and only ACKR3, also known as CXC chemokine receptor 7 (CXCR7), has be ...

[6] = test system: adrenergic receptors; conditions: cited from earlier work
Source text: as §2

[7] = test system: ERK; experiment: ERK phosphorylation (pERK/tERK immunoblot) in neonatal rat cardiomyocytes (NRCMs); assay type: cell-based, rat (Wistar); conditions: 30-min pretreatment with barbadin (50 M [sic]), then 10 min TC14012 (printed 3 M), n = 4
Description: NRCMs and neonatal rat fibroblasts were prepared from 1-day-old Wistar rats (Takasugi Experimental Animal Supply Co., Saitama, Japan), as previously described. Briefly, cardiac cells were dispersed by digestion with collagenase type II (Worthington Biochemical, Lakewood, NJ, USA) and incubated at 37 °C for 80 min to divide the supernatant cells, which are rich in cardiomyocytes, and the attached cells, which are rich in cardiac fibroblasts. The supernatant NRCMs were cultured on gelatin-coated dishes at 37 °C in Dulbecco’s modified Eagle’s medium (DMEM; Nacalai Tesque, Kyoto, Japan) supplemented with 10% fetal calf serum for 36 h and confirmed on the basis of beating activity. After 12 h of starvation, the NRCMs were treated with TC14012 (Tocris Bioscience, Bristol, UK). Attached cells rich in cardiac fibroblasts were subcultured three times to increase their purity. We added vehicle (DMSO) or barbadin (MedChemExpress, New Jersey, USA) 30 min before stimulation.
Western blotting was performed as previously described. […] Signals were detected with the Pierce ECL Prime system (GE Healthcare) in a LAS4000 instrument (GE Healthcare). Band densities were analyzed using the ImageJ software (National Institutes of Health, Bethesda, MD, USA).

[8] = target: T1, human CXCR7 (Homo sapiens, UniProt P25106); experiment: β-arrestin recruitment assay of CXCR7 (luminescence, HEK293); assay type: cell-based; conditions: HEK293 cells transfected with human β-arrestin-2-ω and human CXCR7-α, 37 °C for 90 min, then Gal-Screen 25 °C 90 min, n = 3 independent, read-out: EC50 for coupling of CXCR7 with β-arrestin (β-arrestin recruitment)
T1 construct: expressed in transfected cells; host or cells: HEK293 cells (ATCC CRL-11268)
T1 sequence (P25106 whole entry): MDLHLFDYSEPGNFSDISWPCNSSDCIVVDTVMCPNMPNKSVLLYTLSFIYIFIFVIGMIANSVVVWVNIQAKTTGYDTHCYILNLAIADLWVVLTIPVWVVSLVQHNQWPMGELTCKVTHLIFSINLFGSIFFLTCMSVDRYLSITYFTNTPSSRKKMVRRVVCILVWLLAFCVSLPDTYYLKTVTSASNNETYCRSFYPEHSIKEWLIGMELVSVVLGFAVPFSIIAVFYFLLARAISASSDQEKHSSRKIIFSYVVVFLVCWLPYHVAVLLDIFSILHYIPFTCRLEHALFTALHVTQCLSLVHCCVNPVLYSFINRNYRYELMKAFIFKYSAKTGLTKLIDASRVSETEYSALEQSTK
T1 sequence (P32121 whole entry partner): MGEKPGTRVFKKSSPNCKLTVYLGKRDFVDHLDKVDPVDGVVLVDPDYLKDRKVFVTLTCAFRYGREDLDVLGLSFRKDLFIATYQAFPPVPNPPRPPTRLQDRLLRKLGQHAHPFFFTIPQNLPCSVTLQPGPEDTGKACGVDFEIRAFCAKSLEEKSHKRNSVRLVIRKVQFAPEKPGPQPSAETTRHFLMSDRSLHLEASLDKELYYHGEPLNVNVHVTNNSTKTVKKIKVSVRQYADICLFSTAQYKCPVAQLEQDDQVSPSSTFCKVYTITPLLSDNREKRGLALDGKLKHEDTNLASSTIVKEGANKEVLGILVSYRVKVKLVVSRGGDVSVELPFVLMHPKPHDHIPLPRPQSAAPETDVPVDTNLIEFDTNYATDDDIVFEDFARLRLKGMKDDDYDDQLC
Description: HEK293 cells (ATCC CRL-11268) were used for the β-arrestin recruitment assay, as previously described[52]. In brief, HEK293 cells were transfected with human β-arrestin-2-ω and human CXCR7-α. […] Luminescence was measured in an ARVO X3 plate reader (PerkinElmer, Waltham, MA, USA).

[9] = test system: CC chemokine receptor 2-positive macrophages; conditions: pressure-overload heart failure model; cited from earlier work
Source text: as §1

[10] = test system: CC chemokine receptor-like 2 (CCRL2); conditions: cited from earlier work
Source text: In this study, we focused on CXCR7 because of its abundant expression in the heart and its unique character as a 7TMR. […] As a 7TMR, the β1-adrenergic receptor plays critical roles in the heart[21],[22]; however, its expression level was tenfold lower than that of Cxcr7.

Question: Which results are given for “angiotensin-(1-7): a metabolite of angiotensin II”?
Answer: cardiac hypertrophy [1]: attenuates cardiac hypertrophy; G protein versus β-arrestin activation compared with angiotensin II [2]: binds to type 1 angiotensin II receptor, but fails to activate G proteins, and selectively promotes β-arrestin activation compared with angiotensin II

Question: Which “protection of the heart from hypoxia” value [3] does the source give for “CXCL12: a natural ligand of CXCR4 and CXCR7” here?
Answer: protects the heart from hypoxia

Question: And the “time of peak ERK activity after stimulation” value ([4]; HEK293 cells with CXCR7 expression plasmid, n = 4)?
Answer: 5 min

Question: What about the “ERK activation (pERK/tERK)” value ([4]; HEK293 cells, rat CXCR7 expression plasmid (various amounts), n = 3) of the same molecule?
Answer: activated ERK in a CXCR7 expression plasmid-dose-dependent manner

Question: With `COc1ccccc1OCCNCC(O)COc1cccc2[nH]c3ccccc3c12` (centres unmarked) [carvedilol] as the molecule, how does the “effectiveness in heart failure patients” value [5] read?
Answer: very effective for the treatment of heart failure patients

Question: And the “adrenergic receptor blockade and β-arrestin signaling” value [6]?
Answer: not only blocks adrenergic receptors, but also activates cardioprotective signals, including ERK, through β-arrestin

Question: With `Nn1cnc2scc(-c3ccc(Cc4ccccc4)cc3)c2c1=O` [barbadin] as the molecule, how does the “inhibition of TC14012-induced ERK activation” value [7] read?
Answer: abolished TC14012-induced ERK activation; also recorded: completely suppressed

Question: For `N=C(N)NCCC[C@H](NC(=O)[C@@H]1CSSC[C@H](NC(=O)[C@H](Cc2ccc3ccccc3c2)NC(=O)[C@H](CCCNC(=N)N)NC(=O)[C@@H](N)CCCNC(=N)N)C(=O)N[C@@H](Cc2ccc(O)cc2)C(=O)N[C@@H](CCCNC(N)=O)C(=O)N[C@@H](CCCCN)C(=O)N[C@H](CCCNC(N)=O)C(=O)N2CCC[C@H]2C(=O)N[C@@H](Cc2ccc(O)cc2)C(=O)N[C@@H](CCCNC(=N)N)C(=O)N[C@@H](CCCNC(N)=O)C(=O)N1)C(N)=O` [TC14012], which EC50 [8] is on record?
Answer: 47.4 nM

Question: With “CC chemokine ligand 2: chemokine that induced accumulation of CC chemokine receptor 2-positive macrophages” as the molecule, how does the “accumulation of CCR2-positive macrophages” value [9] read?
Answer: induced the accumulation of CC chemokine receptor 2-positive macrophages

Question: For chemerin: ligand of CCRL2, which “binding to CCRL2” value [10] is on record?
Answer: it does not bind to chemokines, but to chemerin

From publication PMC7873251, “CXCR7 ameliorates myocardial infarction as a β-arrestin-biased receptor” (Scientific Reports, 2021)
